How the values were obtained:
collagenase = biological target: T1, collagenase (Homo sapiens, UniProt P03956); conditions: for IC50: collagenase, 37°, 16 hours, pH 7.5, 14C collagen
T1 sequence (P03956 100-469): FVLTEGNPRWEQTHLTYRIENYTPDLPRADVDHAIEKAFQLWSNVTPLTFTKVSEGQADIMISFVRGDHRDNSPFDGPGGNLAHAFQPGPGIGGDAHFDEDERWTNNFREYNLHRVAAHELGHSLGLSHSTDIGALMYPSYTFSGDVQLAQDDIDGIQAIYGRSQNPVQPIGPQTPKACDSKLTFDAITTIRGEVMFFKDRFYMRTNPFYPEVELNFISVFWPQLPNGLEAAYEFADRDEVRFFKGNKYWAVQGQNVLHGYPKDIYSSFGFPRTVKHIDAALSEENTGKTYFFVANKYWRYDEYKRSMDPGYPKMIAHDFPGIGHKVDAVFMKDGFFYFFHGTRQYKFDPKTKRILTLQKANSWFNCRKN
Source text: The collagen was acetylated ^14 C collagen prepared by the method of Cawston and Murphy (Methods in Enzymology, 80, 711, 1981), hereby incorporated by reference. The samples were centrifuged to sediment undigested collagen and an aliquot of the radioactive supernatant removed for assay on a scintillation counter as a measure of hydrolysis.

stromelysin = stromelysin (Homo sapiens, UniProt P08254); test: Stromelysin inhibition activity (14C-acetylated casein digestion, Cawston et al); format: biochemical
Sequence of stromelysin (P08254 100-477): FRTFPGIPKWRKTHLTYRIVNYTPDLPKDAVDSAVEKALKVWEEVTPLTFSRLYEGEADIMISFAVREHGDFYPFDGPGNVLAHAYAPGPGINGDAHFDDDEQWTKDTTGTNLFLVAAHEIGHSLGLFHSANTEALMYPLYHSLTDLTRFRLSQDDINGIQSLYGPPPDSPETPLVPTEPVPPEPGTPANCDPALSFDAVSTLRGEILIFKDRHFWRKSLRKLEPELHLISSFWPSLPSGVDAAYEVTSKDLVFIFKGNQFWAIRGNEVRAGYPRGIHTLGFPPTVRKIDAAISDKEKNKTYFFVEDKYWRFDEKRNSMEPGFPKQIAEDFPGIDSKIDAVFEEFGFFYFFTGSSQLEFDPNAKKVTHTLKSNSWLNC

Compound	IC50 (collagenase) [nM]	IC50 (stromelysin; stromelysin, 37°, 16 hours, pH 7.5, 14C acetylated casein) [nM]	collagenase-inhibiting activity (in words) (collagenase; qualitative statement)	protoglycanase-inhibiting activity (in words) (stromelysin; qualitative statement, protoglycanase = stromelysin (b9))
CNC(=O)[C@H](Cc1ccccc1)NC(=O)[C@H](CC(C)C)[C@H](CSc1ccccc1)C(=O)NO [Example 1, [4-(N-Hydroxyamino)-2R-isobutyl-3S-(phenylthiomethyl)-succinyl]-L-phenylalanine-N-methylamide]	20	10		
CNC(=O)[C@H](Cc1ccccc1)NC(=O)[C@H](CC(C)C)[C@H](CSc1cccs1)C(=O)NO [Example 2, [4-(N-Hydroxyamino)-2R-isobutyl-3S-(thienylthiomethyl)succinyl]-L-phenylalanine-N-methylamide]			good	good
CNC(=O)[C@H](Cc1ccccc1)NC(=O)[C@H](CC(C)C)[C@H](CS)C(=O)NO [Example 5, [4-(N-Hydroxyamino)-2R-isobutyl-3S-(mercaptomethyl)succinyl]-L-phenylalanine-N-methylamide]	3			

Reference: patent US5530161A, “Hydroxamic acid based collagenase inhibitors” (priority 1994, dated 1996)
